Assay results: US20210246140A1, “MODULATORS OF METABOTROPIC GLUTAMATE RECEPTOR 2” (The General Hospital Corporation, priority 2020, published 2021)

Columns and labels:
[1] = Plasma stability in rat serum; assay type: in vitro ADME; details: 37° C., diltiazem as positive control
Description: Compound stability in rat serum was examined using a published method. [See ref. 57] Rat serum (100 μL, Abeam, Inc, No. ab7488) and test compound or control compound (2.5 μL, 1 mM in DMSO) was added to the individual tube. The tube was vortexed and incubated at 37° C. During the incubation, aliquots of 50 μL samples were quenched with ice-cold acetonitrile at 0, 15, 30, 60, and 120 min time points, respectively. After mixing, the quenched samples were centrifuged, and the supernatant was withdrawn for analysis by HPLC (Agilent 1260 infinity II LC System, XTerra™ MS C18, 5μ, 2.1×250 mm, 20 mM ammonium formate (A)/acetonitrile (B), 0.25 mL/min, gradient of 5% to 100% B). The samples were assayed at least three times. Compound 1-OH was used as internal standard while diltiazem was used as a positive control. The percentage remaining was calculated by (peak area at the specific time point)/(peak area at 0 min)×100% (FIG. 7).
The in vitro plasma and liver microsomal stability of 1 and 2 were studied by incubating the test compounds in rat serum and rat liver microsomes as well as NADPH cofactor, respectively, using previously published methods [see refs. 57, 58]. […] The solution stability of 1 was evaluated with buffer solutions at pH 5.0, 7.4 and 9.4, respectively (FIGS. 10 and 20) [see refs. 61].

[2] = test system: other mGlu receptors (mGluR1, mGluR3, mGluR4, mGluR5, mGluR6, mGluR8); assay: Selectivity among mGluR subtypes (Ca2+ mobilization assay and cAMP assay); assay type: cell-based; details: mGluR1 and mGluR5 by Ca2+ mobilization; mGluR3, 4, 6, 8 by cAMP assay
Description: The Gq coupled receptors (mGluR1 and mGluR5) were tested using Ca^2+ mobilization assay. mGluR1 stable cell lines were plated into poly-L-lysine (PLL) coated 384-well black clear bottom cell culture plates with complete Basal Medium Eagle (BME) buffer, which was composed of 10% dialyzed FBS, penicillin G (100 units/mL), streptomycin (100 μg/mL) with tetracycline (1 μg/mL) at density of 20,000 cells in 40 μl per well for overnight. On the other hand, HEK-293 Cells transiently transfected using the calcium phosphate method with cDNA encoding mGluR5 for 40 h were plated into the plate with complete BME at density of 20,000 cells in 40 μL per well for 8 h. mGluR1 stable cells or cells transiently expressing mGluR5 were incubated with 20 μL of the calcium dye (FLIPR Calcium 4 Assay Kit; Molecular Devices) diluted in the assay buffer (1×FIBSS, 2.5 mM probenecid, and 20 mM HEPES, pH 7.4) for 45 min at 37° C. and 15 min at room temperature. To measure agonist activity of receptors, the drug plates were prepared with different concentrations of test or reference compound at 3 times the desired final concentration. […] Once loaded in FLIPR (Molecular Devices), basal fluorescence was measured for 10 s, then 10 μL of test or reference compounds were added, followed by continued fluorescence measurement for an additional 120 s. […]

stability in rat plasma [1]: much more stable than diltiazem
SMILES: COc1cc(C(F)(F)F)ccc1C1CCN(Cc2nc3ncccc3n2C)CC1 [Compound 1]
selectivity against other mGlu receptor subtypes [2]: > 100 fold
